# Reference: patent US20260216138A1, “IDENTIFICATION OF OTUD7B INHIBITOR 7BI AND ITS APPLICATION IN REDUCING GROWTH OF NSCLC AND LEUKEMIA CELLS” (The University of North Carolina at Chapel Hill, priority 2023, published 2026)
# Legend:
# USP9X = molecular target: T1, USP9X (Homo sapiens, UniProt Q93008); assay: In vitro USP9X deubiquitination assay, K11-linked di-ub cleavage; assay type: biochemical
# T1 construct: USP9X (residues 1551-1970); GST (N, cleaved yes); made in house; host or cells: E. coli BL21-Codon Plus (DE3)-RIL
# T1 sequence (Q93008 1551-1970): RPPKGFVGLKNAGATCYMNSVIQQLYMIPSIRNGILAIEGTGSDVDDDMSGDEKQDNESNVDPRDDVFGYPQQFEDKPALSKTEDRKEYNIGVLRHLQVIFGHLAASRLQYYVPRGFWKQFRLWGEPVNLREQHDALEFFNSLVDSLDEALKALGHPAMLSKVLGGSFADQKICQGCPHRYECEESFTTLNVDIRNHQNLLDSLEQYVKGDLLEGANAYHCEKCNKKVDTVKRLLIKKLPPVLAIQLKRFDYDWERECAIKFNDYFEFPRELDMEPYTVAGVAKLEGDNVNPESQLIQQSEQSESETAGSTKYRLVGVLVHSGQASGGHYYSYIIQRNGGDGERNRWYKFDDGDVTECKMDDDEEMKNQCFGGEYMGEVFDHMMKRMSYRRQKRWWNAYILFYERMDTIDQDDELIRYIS
# Description: (§1) OTUD7B (residues 56-446), OTUD7A (residues 1-462), USP21 (residues 196-565), and USP9X (residues 1551-1970) proteins were expressed in E. Coli BL21-Codon Plus (DE3)-RIL cells. Through an N-terminal GST tag, the DUBs were purified by affinity chromatography using glutathione sepharose 4B (GS4B) resin. Following the liberation of the DUB from the GST tag. the DUBs were subjected to size exclusion chromatography (SEC). To form the K11-linked di-ub, individual ubiquitins (K11R-substituted donor Ub and ΔGG acceptor ubiquitin) were purified and fluorescently-labeled on an N-terminal cysteine using either Cy3- (donor) or Cy5-maleimide (acceptor). The different ubiquitins were then added to a mixture containing UBA1, UBE2S, and MgATP to form di-ub. After an overnight incubation at room temperature, UBE2S was removed by cation-exchange chromatography and the di-ub was purified by SEC. These proteins were used to monitor DUB activity in the presence or absence of the various inhibitors. The inhibitors were incubated with DUBs in a reaction buffer (20 mM Hepes pH=8.0, 200 mM NaCl, 0.25 mg/mL BSA and 0.005% Tween-20) for 5 min at room temperature and then 0.5 uM fluorescently-labeled di-ub (K11-linked) was added to start the reaction. 5×SDS-PAGE loading buffer was used to quench the reaction at the indicated time point. […] Mono-ubiquitin was quantified to generate an IC50 value. […]
# H520 cells = assay: Colony formation / growth of H520 cells; assay type: cell-based; details: treated once for 10 days
# Procedure: (§2) 500 cells from OTUD7B depleted A549 cells were seeded into each well of 6-well plates and cultured in the 37° C. incubator with 5% CO2 for 10-15 days until formation of visible colonies. Triplicates were performed. To test the effect of a given inhibitor on colony formation ability, 800 cells from A549, H520 and H1299 cell lines were seeded into each well of 6-well plates, respectively. Each inhibitor was added at indicated concentration the next day. Colonies were counted after 10 days of treatment. The colony staining method was as described. […] Colony numbers were counted manually. […]
# (§3) 2,000 cells from indicated NSLC cell lines were seeded into each well of 96-well plates. Cell viability was measured 3 days post-treatment using MTT assays following manufacturer's instruction. […] Inhibitor was added the next day at indicated concentration and cell viability was measured after 3-day treatment. For cell proliferation assays in THP1, K562 and HL60 cell lines, 1×10^6 cells from each indicated cell line were seeded in 12.5 cm2 cell culture flask and cells were counted by hemocytometer under microscope at indicated time to monitor cell proliferation. […] Inhibitor was added the next day at indicated concentrations and cell number was counted after 3 days treatment. […]
# A549 cells = assay: Colony formation / growth of A549 cells; assay type: cell-based; details: treated once for 10 days
# Procedure: as §2, §3
# USP21 = molecular target: T2, USP21 (Homo sapiens, UniProt Q9UK80); assay: In vitro USP21 deubiquitination assay, K11-linked di-ub cleavage; assay type: biochemical; details: 80 nM USP21, 10 min
# T2 construct: USP21 (residues 196-565); GST (N, cleaved yes); made in house; host or cells: E. coli BL21-Codon Plus (DE3)-RIL
# T2 sequence (Q9UK80 196-565): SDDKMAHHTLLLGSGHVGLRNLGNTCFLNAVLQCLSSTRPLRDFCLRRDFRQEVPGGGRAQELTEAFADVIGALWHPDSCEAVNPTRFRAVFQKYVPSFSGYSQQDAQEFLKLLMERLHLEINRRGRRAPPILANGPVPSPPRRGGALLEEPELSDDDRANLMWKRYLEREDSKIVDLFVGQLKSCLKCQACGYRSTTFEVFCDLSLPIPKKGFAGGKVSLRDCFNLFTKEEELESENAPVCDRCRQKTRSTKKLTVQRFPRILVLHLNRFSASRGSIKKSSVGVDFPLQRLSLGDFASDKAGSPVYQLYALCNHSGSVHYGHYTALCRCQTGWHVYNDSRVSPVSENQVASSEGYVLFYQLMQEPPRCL
# Description: as §1
smiles,measurement,setting,value
Cc1cc(NC(=O)c2cnn(C)c2C(=O)Nc2cc(C)nn2C2CCCC2)n(C2CCCC2)n1 [7Bi],inhibition of USP9X,USP9X,failed to inhibit
same,cell growth,H520 cells,reduced growth
same,cell growth,A549 cells,reduced growth
same,inhibition of USP21,USP21,failed to inhibit
